Where a name gives a salt, the structure may show the parent alone.
What was measured:
[1] = system: conscious rats; test: Antihypertensive activity by oral administration in conscious rats; format: in vivo, Male Wistar rats; settings: 10 mg/kg oral
Method: When one hour or more passed after the rats were aroused, they were administered the test compound orally.
The blood pressure in the femoral artery was recorder and changes in the mean blood pressure were obtained from the following equation. [formula]

[2] = prior art; cited from earlier work
[3] = system: SHR (Spontaneously Hypertensive Rats); test: Antihypertensive activity in SHR; format: in vivo, Male SHR (Spontaneously Hypertensive Rats); settings: no anesthesia
Method: Male SHR (14 to 16 weeks old) fasted for more than 16 hours were used. […] When one hour or more passed after the rats woke up out of the ether, they were administered the test compound orally. The blood pressure was measured with the pressure transducer via the catheter inserted into the femoral artery.
The test compound was dissolved in a small quantity of ethanol and diluted with water to be adjusted for administration.
Changes in the mean blood pressure were obtained from the equation mentioned below. The Basic and Clinical Study, vol. 14, p. 4495 (1980) is a useful literature to be referred to for making this kind of experiment. [formula]

[4] = system: mean blood pressure; test: Action on mean blood pressure in anesthetized dog; format: in vivo, male beagle dog; settings: 10 μg/kg i.v.
Method: (§1) A male beagle dog weighing about 10 kg was anesthetized with sodium pentobarbital (35 mg/kg i.v.). The test compound was dissolved in a small quantity of ethanol, diluted with an isotonic sodium chloride solution, and was injected into the right femoral vein.
The mean blood pressure (MBP) was measured with the pressure transwer via the cannula inserted into the right femoral artery of the male beagle dog. The changes in the blood pressure after the administration of the test compound are shown in percentages in Table 5.

[5] = system: myocardium; test: Action on myocardium (Max dLVP/dt) in anesthetized dog; format: in vivo, male beagle dog; settings: 10 μg/kg i.v.
Method: as §1
The left ventricular pressure (LVP) was measured with the pressure transducer via the cannula which was inserted from the left common carotid artery into the left ventricle and the recorded pressure was differentiated to calculate the max (dLVP/db), thus measuring the pharmacological action of the test compound on the myocardium. […] The Basic and Clinical Study, vol. 14, 4477 (1980) is a useful literature to be consulted with for making this kind of experiment. It is apparent from Table 6 that the compound of this invention has less exciting action on the myocardium than nicardipine.

[6] = system: cerebral blood vessels (common carotid artery); test: Action on cerebral blood vessels (carotic blood flow) in anesthetized dog; format: in vivo, male beagle dog; settings: 3 μg/kg i.v.
Method: as §1
(§2) The carotic blood flow (CBF) and the femoral blood flow (FBF) were measured with the electromagnetic blood flowmeter (MFV-1200 made by Japan Photoelectric Co., Ltd.) via probe for measuring the blood flow volume set in the right common carotid artery and the left femoral artery of the male beagle dog respectively.

[7] = system: Ca^++ contraction; test: Activity of calcium ion blocking action (thoracic aorta strips); design: species or system male wister rat
Method: Spillay cut strips of thoracic arota were obtained from male wister rat and mounted in K-depalarized solution. 30-40 min. after treatment of compound (140) hydrochloride various concentration of Ca^++ were applied and concentration-response curve of calcium ion (Ca^++) was obtained.

[8] = system: platelet aggregation; test: In vitro inhibitory activity of platelet aggregation; format: cell-based, male Hartley guinea pigs; settings: AA 75 μM; for inhibition at 100 µM: Cavia porcellus, Platelet, Conc. 100 μM
Method: The in vitro platelet aggregation inhibiting activities of the compounds of the invention were examined by using guinea pigs. Blood was withdrawn by cardiac puncture from male Hartley guinea pigs weighing […]. A mixture of a 3.8% trisodium citrate solution and the blood in a ratio of 1:9 was centrifuged at a speed of 800 rpm for 10 minutes. The upper layer was separated as platelet-rich plasma (PRP). The lower layer was further centrifuged at a separated as platelet-poor plasma (PPP). The number of platelets was adjusted to 5×10^5 /μl to 6×10^5 /μl by filuting the PRP with PPP. 25 microliters of the test compounds prepared as shown below was added in an amount of 25 microliters of PRP after the adjustment, and the mixture was pre-incubated at 37° C. for 2 minutes, and then 75 μM (final) of AA was added. By using an aggregometer (37° C., 1,100 rpm), changes in transmission were recorded.
The test compound was dissolved in ethanol to a concentration of 10 mg/ml. When its activity was measured, it was used after being diluted with phosphate buffer (pH 7.4). Furthermore, after dilution with the buffer, the test compound was left to stand at 0° C. for 4 hours, and the activity of the test compound was similarly measured.
The rate of inhibition of platelet aggregation was determined from the following equation. [formula]

[9] = system: anesthetized rats; test: Hypotensive activity by intravenous administration in anesthetized rats (Example 23); format: in vivo, Male Wistar rats
Method: Male Wistar rats weighing about 250 g were used. They were anesthetized with urethane (500 mg/kg) and α-chloralose (100 mg/kg) intraperitoneal injection.
The test compound was dissolved in a small quantity of ethanol and the solution, which was then diluted with physiological saline to have a final concentration of ethanol kept at 5% or lower, was intravenously injected through a catheter inserted into the femoral vein.
The blood pressure was recorded with the pressure transducer via the catheter inserted into the common carotid artery of the rats.
Hypotensive activity of the test compound was indicated by the dose (ED20 μ/kg) required for decreasing the mean blood pressure by 20% as compared with the mean blood pressure before the administration.
To determine the duration of the hypotensive action of the test compound, half-life of hypotensive action T^1 /2) was measured.

[10] = system: peripheral blood vessels (femoral artery); test: Action on peripheral blood vessels (femoral blood flow) in anesthetized dog; format: in vivo, male beagle dog; settings: 3 μg/kg i.v.
Method: as §1, §2

[11] = Light stability in methanol solution; format: physicochemical; settings: light, read-out: Remaining percentage
Method: 1 mg of compound (156) hydrochloride was dissolved in 100 ml of methanol. The solution was placed in a transparent glass test tube, and after the test tube was tightly stoppered, it was allowed to stand by the window of the laboratory. Part of the solution was taken at regular intervals and subjected to high performance liquid chromatograph to determined the remaining quantity of compound (156) hydrochloride contained in the solution. The same experiment was conducted with nicardipine hydrochloride as the control.

CCOC(=O)C1=C(C)NC(C)=C(C(=O)OC)C1c1cccc(Cl)c1Cl (stereo not shown) [Felodipine, 4-(2,3-dichlorophenyl)-2,6-dimethyl-1,4-dihydropyridine-3,5-dicarboxylic acid-3-methyl ester-5-ethyl ester, reference compound]
Changes in mean blood pressure ([1]; after 30 min): -34 mmHg
Changes in mean blood pressure ([1]; after 60 min): -27 mmHg
Changes in mean blood pressure ([1]; after 90 min): -24 mmHg
Changes in mean blood pressure ([1]; after 2 hr): -22 mmHg
Changes in mean blood pressure ([1]; after 3 hr): -17 mmHg
Changes in mean blood pressure ([1]; after 5 hr): -10 mmHg
Changes in mean blood pressure ([1]; after 7 hr): -5 mmHg
solubility in water [2]: very purely soluble in water

COC(=O)C1=C(C)NC(C)=C(C(=O)OCC(C)(C)CN(C)Cc2ccccc2)C1c1cc([N+](=O)[O-])ccc1F (stereo not shown) [(140) hydrochloride, 3-(N-Benzyl-N-methylamino)-2,2-dimethylpropyl methyl 2,6-dimethyl-4-(2-fluoro-5-nitrophenyl)-1,4-dihydropyridine-3,5-dicarboxylate]
Changes in mean blood pressure ([1]; after 30 min): -36.7 mmHg
Changes in mean blood pressure ([1]; after 60 min): -35.4 mmHg
Changes in mean blood pressure ([1]; after 90 min): -36.3 mmHg
Changes in mean blood pressure ([1]; after 2 hr): -36.2 mmHg
Changes in mean blood pressure ([1]; after 3 hr): -33.8 mmHg
Changes in mean blood pressure ([1]; after 5 hr): -32.6 mmHg
Changes in mean blood pressure ([1]; after 7 hr): -31.7 mmHg
Changes in MBP ([3]; 3 mg/kg oral, 30 min.): -68 ± 2 mmHg
Changes in MBP ([3]; 3 mg/kg oral, 60 min.): -69 ± 4 mmHg
Changes in MBP ([3]; 3 mg/kg oral, 90 min.): -65 ± 2 mmHg
Changes in MBP ([3]; 3 mg/kg oral, 2 hr.): -65 ± 2 mmHg
Changes in MBP ([3]; 3 mg/kg oral, 3 hr.): -65 ± 2 mmHg
Changes in MBP ([3]; 3 mg/kg oral, 5 hr.): -55 mmHg
Changes in MBP ([3]; 3 mg/kg oral, 7 hr.): -39 ± 5 mmHg
Changes in MBP ([4]; 0.5 min.): -6 ± 1%
Changes in MBP ([4]; 1 min.): -10 ± 1%
Changes in MBP ([4]; 2 min.): -15 ± 1%
Changes in MBP ([4]; 5 min.): -20 ± 2%
Changes in MBP ([4]; 10 min.): -23 ± 2%
Changes in MBP ([4]; 15 min.): -28 ± 3%
Changes in Max dLVP/dt ([5]; 0.5 min.): 0 ± 2%
Changes in Max dLVP/dt ([5]; 1 min.): +2 ± 2%
Changes in Max dLVP/dt ([5]; 2 min.): +2 ± 3%
Changes in Max dLVP/dt ([5]; 5 min.): -6 ± 3%
Changes in Max dLVP/dt ([5]; 10 min.): +6 ± 4%
Changes in Max dLVP/dt ([5]; 15 min.): +4 ± 4%
Changes in CBF ([6]; 0.5 min.): +7%
Changes in CBF ([6]; 1 min.): +14%
Changes in CBF ([6]; 2 min.): +17%
Changes in CBF ([6]; 5 min.): +22%
Changes in CBF ([6]; 10 min.): +22%
IC50 ([7]; 30-40 min after treatment, K-depolarized solution, read-out: 50% inhibited concentration to Ca^++ contraction): 0.1 nM
inhibition at 100 µM [8]: -1.1 ± 1.4%

COC(=O)C1=C(C)NC(C)=C(C(=O)OCCN(C)Cc2ccccc2)C1c1cccc([N+](=O)[O-])c1 (stereo not drawn) [Nicardipine hydrochloride, 4-(3-nitrophenyl)-2,6-dimethyl-1,4-dihydropyridine-3,5-dicarboxylic acid-3-methyl ester-5-β-(N-benzyl-N-methylamino) ethyl hydrochloride, reference compound]
ED20 ([9]; Rattus norvegicus, iv, anesthetized Wistar rats about 250 g, read-out: ED20 (dose decreasing mean blood pressure by 20%)): 0.021 mg/kg
Duration T1/2 (half-life of hypotensive action) ([9]; i.v., dose 30): 4.2 min
Changes in mean blood pressure ([1]; after 30 min): -26.7 mmHg
Changes in mean blood pressure ([1]; after 60 min): -19.2 mmHg
Changes in mean blood pressure ([1]; after 90 min): -18.3 mmHg
Changes in mean blood pressure ([1]; after 2 hr): -16.3 mmHg
Changes in mean blood pressure ([1]; after 3 hr): -7.1 mmHg
Changes in mean blood pressure ([1]; after 5 hr): +1.3 mmHg
Changes in mean blood pressure ([1]; after 7 hr): +2.5 mmHg
Changes in MBP ([3]; 10 mg/kg oral, 30 min.): -28 ± 13 mmHg
Changes in MBP ([3]; 10 mg/kg oral, 60 min.): -29 ± 11 mmHg
Changes in MBP ([3]; 10 mg/kg oral, 90 min.): -17 ± 14 mmHg
Changes in MBP ([3]; 10 mg/kg oral, 2 hr.): -18 ± 9 mmHg
Changes in MBP ([3]; 10 mg/kg oral, 3 hr.): -12 ± 8 mmHg
Changes in MBP ([3]; 10 mg/kg oral, 5 hr.): -10 mmHg
Changes in MBP ([3]; 10 mg/kg oral, 7 hr.): -11 ± 6 mmHg
time to peak of antihypertensive action after the administration [4]: one
Changes in MBP ([4]; 0.5 min.): -17 ± 2%
Changes in MBP ([4]; 1 min.): -18 ± 3%
Changes in MBP ([4]; 2 min.): -16 ± 3%
Changes in MBP ([4]; 5 min.): -11 ± 4%
Changes in MBP ([4]; 10 min.): -7 ± 4%
Changes in MBP ([4]; 15 min.): -8 ± 5%
Changes in Max dLVP/dt ([5]; 0.5 min.): +5 ± 3%
Changes in Max dLVP/dt ([5]; 1 min.): +10 ± 7%
Changes in Max dLVP/dt ([5]; 2 min.): +38 ± 23%
Changes in Max dLVP/dt ([5]; 5 min.): +42 ± 24%
Changes in Max dLVP/dt ([5]; 10 min.): +31 ± 18%
Changes in Max dLVP/dt ([5]; 15 min.): +6 ± 11%
time to peak of CBF after the administration [6]: one
Changes in CBF ([6]; 0.5 min.): +7%
Changes in CBF ([6]; 1 min.): +14%
Changes in CBF ([6]; 2 min.): +13%
Changes in CBF ([6]; 5 min.): +5%
Changes in CBF ([6]; 10 min.): +3%
time to peak of FBF after the administration [10]: 2 min
Changes in FBF ([10]; 0.5 min.): +7 ± 7%
Changes in FBF ([10]; 1 min.): +20 ± 9%
Changes in FBF ([10]; 2 min.): +24 ± 0%
Changes in FBF ([10]; 5 min.): +17 ± 10%
Changes in FBF ([10]; 10 min.): +6 ± 0%
50% inhibited concentration to Ca^++ contraction relative to compound (140) hydrochloride ([7]; as much as that of compound (140) hydrochloride): twice
inhibitory activity of platelet aggregation ([8]; 100 μM): has inhibitory activity of platelet aggregation
inhibition at 100 µM [8]: 35.2 ± 9.4%
remaining at 2 h ([11]; 2 hr.): 98%
remaining at 4 h ([11]; 4 hr.): 87%
remaining at 6 h ([11]; 6 hr.): 78%
